Activity calls are given as the source filed them.

Data set [1] concerns Staphylococcus aureus. Put plainly: Antibacterial activity against methicillin-resistant Staphylococcus aureus clinical isolate 8 incubated for 16 to 18 hrs by CLSI-based microbroth dilution method. Type of data set: functional. Conditions: time 16-18 hrs. In general terms: Broth dilution looks for growth in wells or tubes with falling amounts of substance.
The subject of data set [2] is Cell membrane. The experiment in a line: Disruption of membrane integrity in methicillin-resistant Staphylococcus aureus 3 assessed as increase in intense blue fluorescence at 8 times MIC incubated for 4 hrs by DAPI/PI staining based laser confocal microscopic analysis. The class given is subcellular.
A short description of data set [3]: Toxicity in KM mouse infected with methicillin-resistant Staphylococcus aureus 3 assessed as histopathological abnormalities in lungs at 5 to 10 mg/kg administered into skin infection site measured after 24 hrs by H and E staining based analysis. The class given is organism-based. Conditions: in vivo, topical_or_ocular, dose 5-10 mg/kg.
The test system of data set [4] is Cell membrane. Put plainly: Disruption of membrane integrity in methicillin-resistant Staphylococcus aureus 3 assessed as appearance of uneven cell surface at 16 ug/ml incubated for 240 mins by SEM analysis. Conditions: dose 16.0 µg/ml. The class given is subcellular.
Data set [5] is described as follows: Toxicity in KM mouse infected with methicillin-resistant Staphylococcus aureus 3 assessed as histopathological abnormalities in heart at 5 to 10 mg/kg administered into skin infection site measured after 24 hrs by H and E staining based analysis. The class given is organism-based. The settings on record: in vivo, topical_or_ocular, dose 5-10 mg/kg.

The term MIC denotes the smallest concentration in the dilution series that meets the test's criterion for growth inhibition. Compound `CCCN(CCC)C(=O)C[N+](C)(C)CCCCOc1ccc(/C=C/C(=O)c2c(OC)cc3c(c2O)C=CC(C)(C)O3)cc1.[Br-]` registered a minimal inhibitory concentration (MIC) in data set [1] of 2 µg/mL. Further, the outcome in data set [2] and in data set [4] was Active. For the same compound, the Activity result in data set [3] and in data set [5] was “Non-Toxic” throughout.

The record behind these values is ChEMBL document CHEMBL5316298, “Discovery of Amphiphilic Xanthohumol Derivatives as Membrane-Targeting Antimicrobials against Methicillin-Resistant Staphylococcus aureus” (J Med Chem, 2023).
